A word on the Ki: it is the equilibrium dissociation constant of an inhibitor or competing ligand from its target.

One assay deals with T1, Human Recombinant Matriptase 2 (Homo sapiens, UniProt Q8IU80).
T1 construct: made in house
T1 sequence (Q8IU80 1-811): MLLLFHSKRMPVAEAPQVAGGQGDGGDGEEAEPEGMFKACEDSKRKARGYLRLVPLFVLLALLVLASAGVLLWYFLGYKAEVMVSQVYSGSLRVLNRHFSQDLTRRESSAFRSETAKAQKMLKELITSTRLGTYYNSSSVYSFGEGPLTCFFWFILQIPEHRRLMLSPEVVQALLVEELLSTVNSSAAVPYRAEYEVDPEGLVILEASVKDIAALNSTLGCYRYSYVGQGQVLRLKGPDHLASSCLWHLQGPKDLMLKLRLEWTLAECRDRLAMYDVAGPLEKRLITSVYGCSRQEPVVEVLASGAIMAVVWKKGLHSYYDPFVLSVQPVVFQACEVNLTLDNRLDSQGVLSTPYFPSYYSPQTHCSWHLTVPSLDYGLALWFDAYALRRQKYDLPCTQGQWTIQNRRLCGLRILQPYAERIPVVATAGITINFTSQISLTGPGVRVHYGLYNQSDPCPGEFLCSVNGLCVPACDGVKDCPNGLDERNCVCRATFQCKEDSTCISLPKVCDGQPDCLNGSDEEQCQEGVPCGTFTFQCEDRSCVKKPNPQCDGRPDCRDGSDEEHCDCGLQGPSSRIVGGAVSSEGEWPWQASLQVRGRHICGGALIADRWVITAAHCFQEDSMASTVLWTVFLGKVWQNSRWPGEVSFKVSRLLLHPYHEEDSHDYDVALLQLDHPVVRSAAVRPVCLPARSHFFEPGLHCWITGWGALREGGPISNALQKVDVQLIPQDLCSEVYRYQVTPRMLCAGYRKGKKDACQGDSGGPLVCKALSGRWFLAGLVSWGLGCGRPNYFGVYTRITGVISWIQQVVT
Put plainly: Matriptase 2 inhibition, fluorescence based assay (Method I). It counts as biochemical. The note with it: Table A; Ki of Matriptase-2, class symbols; read-out: Mat-2 Ki. On the procedure:
• Method I: Test compounds were evaluated for their potential to inhibit Human Recombinant Matriptase 2 (in-house) using fluorescence based assay. The concentration of Recombinant Matriptase 2 and the substrate used in the assay was: 3.5 nM (In-house Matriptase 2) and 62 μM (Boc-Gln-Ala-Arg-7-amido-4-methyl coumarin hydrobromide −Cat log: I-1550 from Bachem) respectively. The assay buffer used was 50 mM TRIS pH 7.5, 150 mM NaCl, 0.01% Gelatin TCL059 Himedia). The assay was performed using 384 well black flat bottom plate from grenier (Cat log: 781076) at 25° C. The enzyme and compound were preincubated for 30 mins, the plate was read at 60 mins after substrate addition at wavelength Ex: 360/Em: 480 nm. The final assay volume was 20 μl. A stock solution of compounds was initially prepared in DMSO and appropriate dilutions were made and IC50 was determined for all the compounds (final DMSO conc in the assay was 1%). All the measurements were carried out using the Spectramax M5, Molecular devices.
To determine Ki values, dose response curves were generated by plotting percentage inhibition as a function of inhibitor concentration and the data was fitted to sigmoidal non-linear regression equation (variable slope) using Graph Pad prism software V8.
In the case of `CN1CCCC1COC(=O)Nc1cc(Cn2c(C(=O)O)cc3ccc(CN)cc32)c2ccccc2c1` (racemic) [Compound 398, 6-(aminomethyl)-1-{[3-({[(1-methylpyrrolidin-2-yl)methoxy]carbon-yl}amino]naphthalen-1-yl]methyl}-1H-indole-2-carboxylic acid], the inhibition constant Ki lay within 500 to 3000 nM.

The assay is the same for the next values; noted with them: Table A; Ki of Matriptase-2; read-out: Mat-2 Ki.
Consider `CN(CCOC(=O)c1cc2ccc(CN)nc2n1Cc1cc(NS(=O)(=O)Cc2ccccc2)cc2ccccc12)c1ccccc1` [Compound 126, 2-[methyl(phenyl)-amino]ethyl 6-(amino-methyl)-1-{[3-(phenyl-methanesulfonamido)-naphthalen-1-yl]methyl}-1H-pyrrolo[2,3-b]pyr-idine-2-carboxylate], for which the Ki lay in the range of 500 to 3000 nM. The same measure, in the same setting: as for `NCc1ccc2cc(C(=O)OCC3CC3)n(Cc3cc(NS(=O)(=O)Cc4ccccc4)cc4ccccc34)c2n1` [Compound 120, cyclopropylmethyl 6-(aminomethyl)-1-{[3-(phenylmethanesulfon-amido)naphthalen-1-yl]-methyl}-1H-pyrrolo[2,3-b]pyridine-2-carboxylate], the figure is 500 to 3000 nM.

As to `NCc1ccc2cc(C(=O)OCc3ccccc3)n(Cc3cc(NS(=O)(=O)Cc4ccccc4)cc4ccccc34)c2n1` [Compound 123, benzyl 6-(aminomethyl)-1-{[3-(phenylmethane-sulfonamido)naphthalen-1-yl]methyl}-1H-pyr-rolo[2,3-b]pyridine-2-carboxylate], the inhibition constant (Ki) lay in the range of 500 to 3000 nM. Still for that read-out and setting: as for `C[C@@H](COC(=O)c1cc2ccc(CN)nc2n1Cc1cc(NS(=O)(=O)Cc2ccccc2)cc2ccccc12)N(C)C` [Compound 27, (2S)-2-(dimethylamino)-propyl 6-(aminomethyl)-1-{[3-(phenylmethane-sulfonamido)naphthalen-1-yl]methyl}-1H-pyr-rolo[2,3-b]pyridine-2-carboxylate], the figure is not above 100 nM. On the same count and under the same terms, as for `CN1CCC(COC(=O)c2cc3ccc(CN)nc3n2Cc2cc(NS(=O)(=O)[C@H](F)c3ccccc3)cc3ccccc23)CC1` (racemic) [Compound 23, (1-methylpiperidin-4-yl)methyl 6-(amino-methyl)-1-({3-[fluoro-(phenyl)methanesulfon-amido]naphthalen-1-yl}-methyl)-1H-pyrrolo[2,3-b]pyridine-2-carboxylate], the figure is not above 100 nM; as for `NCc1ccc2cc(C(=O)OCc3ccccn3)n(Cc3cc(NS(=O)(=O)Cc4ccccc4)cc4ccccc34)c2n1` [Compound 85, (pyridin-2-yl)methyl 6-(aminomethyl)-1-{[3-(phenylmethanesulfon-amido)naphthalen-1-yl]-methyl}-1H-pyrrolo[2,3-b]pyridine-2-carboxylate], 100 to 500 nM; as for `CC(C)(C)n1cncc1COC(=O)c1cc2ccc(CN)nc2n1Cc1cc(NS(=O)(=O)Cc2ccsc2)cc2ccccc12` [Compound 159, (1-tert-butyl-1H-imid-azol-5-yl)methyl 6-(aminomethyl)-1-({3-[(thiophen-3-yl)methane-sulfonamido]naphthalen-1-yl}methyl)-1H-pyr-rolo[2,3-b]pyridine-2-carboxylate], not above 100 nM.

Still in this assay, the particulars now being: Table A; Ki of Matriptase-2 given as class symbols; read-out: Mat-2 Ki.
In the case of `CNCCOC(=O)c1cc2ccc(CN)nc2n1Cc1cc(NS(=O)(=O)CC2CCNCC2)cc2ccccc12` [Compound 278, 2-(methylamino)ethyl 6-(aminomethyl)-1-({3-[(piperidin-4-yl)methane-sulfonamido]naphthalen-1-yl}methyl)-1H-pyr-rolo[2,3-b]pyridine-2-carboxylate], the inhibition constant Ki lay in the range of 500 to 3000 nM.

Consider `CN(C)CCCCOC(=O)c1cc2ccc(CN)cc2n1Cc1cc(NS(=O)(=O)Cc2ccccc2)cc2ccccc12` [Compound 384, 4-(dimethylamino)butyl 6-(aminomethyl)-1-{[3-(phenylmethanesulfon-amido)naphthalen-1-yl]-methyl}-1H-indole-2-carboxylate], for which the Ki was in the range of 100 to 500 nM. As for `NCc1ccc2cc(C(=O)O)n(Cc3cc(NS(=O)(=O)Cc4cccnc4)cc4ccccc34)c2n1` [Compound 242, 6-(aminomethyl)-1-({3-[(pyridin-3-yl)methane-sulfonamido]naphthalen-1-yl}methyl)-1H-pyr-rolo[2,3-b]pyridine-2-carboxylic acid], the inhibition constant Ki was in the range of 100 to 500 nM.

Turning to `CN1CCC(COC(=O)c2cc3ccc(CN)cc3n2Cc2cc(NS(=O)(=O)Cc3ccccc3)cc3ccccc23)CC1` [Compound 376, (1-methylpiperidin-4-yl)-methyl 6-(aminomethyl)-1-1{[3-(phenylmethane-sulfonamido)naphthalen-1-yl]methyl}-1H-indole-2-carboxylate], the Ki is not above 100 nM. Still for that read-out and setting: with `CN1CCCC(COC(=O)c2cc3ccc(CN)cc3n2Cc2cc(NS(=O)(=O)Cc3ccccc3)cc3ccccc23)C1` (racemic) [Compound 382, (1-methylpiperidin-3-yl)-methyl 6-(aminomethyl)-1-{[3-(phenylmethane-sulfonamido)naphthalen-1-yl]methyl}-1H-indole-2-carboxylate] the figure was not above 100 nM; with `CC(C)[C@H]1CCN(C(=O)Nc2cc(Cn3c(C(=O)O)cc4ccc(CN)nc43)c3ccccc3c2)C1` (racemic) [Compound 303, rac-6-(aminomethyl)-1-[(3-{[(3R)-3-(propan-2-yl)pyrrolidine-1-carbon-yl]amino}naphthalen-1-yl)methyl]-1H-pyrrolo-[2,3-b]pyridine-2-car-boxylic acid], 500 to 3000 nM. Same read-out and setting: with `CN1CCC(COC(=O)c2cc3ccc(CN)nc3n2Cc2cc(NS(=O)(=O)Cc3ccccc3F)cc3ccccc23)CC1` [Compound 205, (1-methylpiperidin-4-yl)methyl 6-(aminometh-yl)-1-({3-[(2-fluorophen-yl)methanesulfonamido]-naphthalen-1-yl}methyl)-1H-pyrrolo[2,3-b]pyr-idine-2-carboxylate] the figure was not above 100 nM; with `CS(=O)(=O)N1CCC(CNC(=O)Nc2cc(Cn3c(C(=O)O)cc4ccc(CN)cc43)c3ccccc3c2)CC1` [Compound 397, 6-(aminomethyl)-1-{[3-({[(1-methanesulfonyl-piperidin-4-yl)methyl]-carbamoyl}amino)naph-thalen-1-yl]methyl}-1H-indole-2-carboxylic acid], 100 to 500 nM; with `NCc1ccc2cc(C(=O)O)n(Cc3cc(NS(=O)(=O)Cc4ccccn4)cc4ccccc34)c2n1` [Compound 222, 6-(aminomethyl)-1-({3-[(pyridin-2-yl)methane-sulfonamido]naphthalen-1-yl}methyl)-1H-pyr-rolo[2,3-b]pyridine-2-carboxylic acid], 100 to 500 nM. On to `CC(C)(C)S(=O)(=O)N1CCC(CNC(=O)Nc2cc(Cn3c(C(=O)O)cc4ccc(CN)nc43)c3ccccc3c2)CC1` [Compound 294, 6-(aminomethyl)-1-({3-[({[1-(2-methylpropane-2-sulfonyl)piperidin-4-yl]methyl}carbamoyl)-amino]naphthalen-1-yl}-methyl)-1H-pyrrolo[2,3-b]pyridine-2-carboxylic acid], for which the inhibition constant (Ki) lay within 100 to 500 nM. Still for that read-out and setting: as for `CC(C)(C)OC(=O)N1CCOC[C@@H]1CS(=O)(=O)Nc1cc(Cn2c(C(=O)O)cc3ccc(CN)nc32)c2ccccc2c1` (racemic) [Compound 277, 6-(aminomethyl)-1-{[3-({4-[(tert-butoxy)car-bonyl]morpholin-3-yl}-methanesulfonamido)-naphthalen-1-yl]methyl}-1H-pyrrolo[2,3-b]pyr-idine-2-carboxylic acid], the figure is 500 to 3000 nM.

On to `C[C@@H]1C[C@H](C)CN(C(=O)Nc2cc(Cn3c(C(=O)O)cc4ccc(CN)nc43)c3ccccc3c2)C1` [Compound 301, 6-(aminomethyl)-1-[(3-{[(3R,5S)-3,5-dimeth-ylpiperidine-1-carbonyl]-amino}naphthalen-1-yl)-methyl]-1H-pyrrolo[2,3-b]pyridine-2-carboxylic acid], for which the Ki was in the range of 500 to 3000 nM. Turning to `CN(C)CC(=O)Nc1nnc(-c2cc3ccc(CN)nc3n2Cc2cc(NS(=O)(=O)Cc3ccccc3)cc3ccccc23)o1` [Compound 349], the Ki is not above 100 nM.

Staying with this assay, now noted: Table B; Human Recombinant Matriptase 2, 3.5 nM enzyme, 62 μM substrate, 30 mins preincubation; read-out: Mean Ki.
As for `CN1CCC(CCOC(=O)c2cc3ccc(CN)nc3n2Cc2cc(NS(=O)(=O)Cc3ccsc3)cc3c2CCCC3)CC1=O` (stereo not shown) [Compound 2.2], the Ki lay within 100 to 500 nM.

(Values after patent publication US20240400553A1, “AMINE BASED MATRIPTASE 2 INHIBITORS AND USES THEREOF” (Disc Medicine, Inc., priority 2023, published 2024).)
